# Source: US20240252454A1, “COMPOSITION COMPRISING AN INHIBITOR OF MITOCHONDRIAL TRANSCRIPTION” (LEAD DISCOVERY CENTER GMBH, priority 2021, published 2024)
# Tests used:
# Assay in all cases: SRB assay, IMT combined with inhibitor
# Type in all cases: cell-based
# [1] = tested on: HCT15; details: HCT15 (colon); concentration series of the labelled inhibitor + fixed concentration of IMT (3S)-1-[(2R)-2-[4-(2-chloro-4-fluoro-phenyl)-2-oxo-chromen-7-yl]oxypropanoyl]piperidine-3-carboxylic acid (Table 3: 40 nM, 120 h); negative=synergistic, positive=antagonistic
# Outline: (§1)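 Cellular biomass changes were measured by sulforhodamine B staining in medium with 5 mM glucose, at least two independent replicates. Dilution series of MAPK pathway standard-of-care inhibitors were combined with a fixed 40 nM (3S)-1-[(2R)-2-[4-(2-chloro-4-fluoro-phenyl)-2-oxo-chromen-7-yl]oxypropanoyl]piperidine-3-carboxylic acid; growth followed over 120 h versus untreated cells.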
# [2] = tested on: A673; details: A673 (muscle); concentration series of the labelled inhibitor + fixed concentration of IMT (3S)-1-[(2R)-2-[4-(2-chloro-4-fluoro-phenyl)-2-oxo-chromen-7-yl]oxypropanoyl]piperidine-3-carboxylic acid (Table 3: 40 nM, 120 h); negative=synergistic, positive=antagonistic
# Outline: as §1
# [3] = tested on: HEPG2; details: HEPG2 (liver); concentration series of the labelled inhibitor + fixed concentration of IMT (3S)-1-[(2R)-2-[4-(2-chloro-4-fluoro-phenyl)-2-oxo-chromen-7-yl]oxypropanoyl]piperidine-3-carboxylic acid (Table 3: 40 nM, 120 h); negative=synergistic, positive=antagonistic
# Outline: as §1
# [4] = tested on: SKMEL5; details: SKMEL5 (skin); concentration series of the labelled inhibitor + fixed concentration of IMT (3S)-1-[(2R)-2-[4-(2-chloro-4-fluoro-phenyl)-2-oxo-chromen-7-yl]oxypropanoyl]piperidine-3-carboxylic acid (Table 3: 40 nM, 120 h); negative=synergistic, positive=antagonistic
# Outline: as §1
# [5] = tested on: GRANTA-519; details: GRANTA-519 (hematological); concentration series of the labelled inhibitor + fixed concentration of IMT (3S)-1-[(2R)-2-[4-(2-chloro-4-fluoro-phenyl)-2-oxo-chromen-7-yl]oxypropanoyl]piperidine-3-carboxylic acid (Table 3: 40 nM, 120 h); negative=synergistic, positive=antagonistic
# Outline: as §1
# [6] = tested on: CALU6; details: CALU6 (lung); concentration series of the labelled inhibitor + fixed concentration of IMT (3S)-1-[(2R)-2-[4-(2-chloro-4-fluoro-phenyl)-2-oxo-chromen-7-yl]oxypropanoyl]piperidine-3-carboxylic acid (Table 3: 40 nM, 120 h); negative=synergistic, positive=antagonistic
# Outline: as §1
# [7] = tested on: COLO205; details: COLO205 (colon); concentration series of the labelled inhibitor + fixed concentration of IMT (3S)-1-[(2R)-2-[4-(2-chloro-4-fluoro-phenyl)-2-oxo-chromen-7-yl]oxypropanoyl]piperidine-3-carboxylic acid (Table 3: 40 nM, 120 h); negative=synergistic, positive=antagonistic
# Outline: as §1
# [8] = tested on: HT29; details: HT29 (colon); concentration series of the labelled inhibitor + fixed concentration of IMT (3S)-1-[(2R)-2-[4-(2-chloro-4-fluoro-phenyl)-2-oxo-chromen-7-yl]oxypropanoyl]piperidine-3-carboxylic acid (Table 3: 40 nM, 120 h); negative=synergistic, positive=antagonistic
# Outline: as §1
# [9] = tested on: SKMEL28; details: SKMEL28 (skin); concentration series of the labelled inhibitor + fixed concentration of IMT (3S)-1-[(2R)-2-[4-(2-chloro-4-fluoro-phenyl)-2-oxo-chromen-7-yl]oxypropanoyl]piperidine-3-carboxylic acid (Table 3: 40 nM, 120 h); negative=synergistic, positive=antagonistic
# Outline: as §1
# [10] = tested on: IMR90; details: IMR90 (lung); concentration series of the labelled inhibitor + fixed concentration of IMT (3S)-1-[(2R)-2-[4-(2-chloro-4-fluoro-phenyl)-2-oxo-chromen-7-yl]oxypropanoyl]piperidine-3-carboxylic acid (Table 3: 40 nM, 120 h); negative=synergistic, positive=antagonistic
# Outline: as §1
# [11] = tested on: SKOV3; details: SKOV3 (ovary); concentration series of the labelled inhibitor + fixed concentration of IMT (3S)-1-[(2R)-2-[4-(2-chloro-4-fluoro-phenyl)-2-oxo-chromen-7-yl]oxypropanoyl]piperidine-3-carboxylic acid (Table 3: 40 nM, 120 h); negative=synergistic, positive=antagonistic
# Outline: as §1
# [12] = tested on: NCIH460; details: NCIH460 (lung); concentration series of the labelled inhibitor + fixed concentration of IMT (3S)-1-[(2R)-2-[4-(2-chloro-4-fluoro-phenyl)-2-oxo-chromen-7-yl]oxypropanoyl]piperidine-3-carboxylic acid (Table 3: 40 nM, 120 h); negative=synergistic, positive=antagonistic
# Outline: as §1
# [13] = tested on: MHHES1; details: MHHES1 (bone); concentration series of the labelled inhibitor + fixed concentration of IMT (3S)-1-[(2R)-2-[4-(2-chloro-4-fluoro-phenyl)-2-oxo-chromen-7-yl]oxypropanoyl]piperidine-3-carboxylic acid (Table 3: 40 nM, 120 h); negative=synergistic, positive=antagonistic
# Outline: as §1
# [14] = tested on: MIAPACA2; details: MIAPACA2 (pancreas); concentration series of the labelled inhibitor + fixed concentration of IMT (3S)-1-[(2R)-2-[4-(2-chloro-4-fluoro-phenyl)-2-oxo-chromen-7-yl]oxypropanoyl]piperidine-3-carboxylic acid (Table 3: 40 nM, 120 h); negative=synergistic, positive=antagonistic
# Outline: as §1
compound,measurement,setting,value
CC(C)Nc1cc(-c2c[nH]c(C(=O)N[C@H](CO)c3cccc(Cl)c3)c2)c(Cl)cn1 [Ulixertinib],difference between the calculated combinatorial index (BLISS) and the observed combinatorial effect,[1],−0.0215
same,difference between the calculated combinatorial index (BLISS) and the observed combinatorial effect,[2],0.0876
same,difference between the calculated combinatorial index (BLISS) and the observed combinatorial effect,[3],0.0953
same,difference between the calculated combinatorial index (BLISS) and the observed combinatorial effect,[4],−0.0542
same,difference between the calculated combinatorial index (BLISS) and the observed combinatorial effect,[5],0.0393
same,difference between the calculated combinatorial index (BLISS) and the observed combinatorial effect,[6],0.0100
same,difference between the calculated combinatorial index (BLISS) and the observed combinatorial effect,[7],0.0384
same,difference between the calculated combinatorial index (BLISS) and the observed combinatorial effect,[8],0.0702
same,difference between the calculated combinatorial index (BLISS) and the observed combinatorial effect,[9],0.0022
same,difference between the calculated combinatorial index (BLISS) and the observed combinatorial effect,[10],0.0678
same,difference between the calculated combinatorial index (BLISS) and the observed combinatorial effect,[11],0.0284
same,difference between the calculated combinatorial index (BLISS) and the observed combinatorial effect,[12],0.0088
same,difference between the calculated combinatorial index (BLISS) and the observed combinatorial effect,[13],0.0992
same,difference between the calculated combinatorial index (BLISS) and the observed combinatorial effect,[14],0.0431
